Source: patent publication US20240335429A1, “MOLECULAR GLUE AND SALL4 DEGRADER” (National University of Singapore, priority 2021, published 2024)

Tests used:
[1] = tested on: SNU-398 cells; assay: CellTiter-Glo viability assay, SNU-398; format: cell-based, human; conditions: CellTiter-Glo
Procedure: Cells were plated in RPMI culture media (40 μL) in 384-well white, flat-bottom plates (Corning) and incubated at 37° C. in a humidified atmosphere of 5% CO2 overnight. The numbers of cells per well were 1,500 for SNU-398 and SNU-182, 750 for SNU-387, SNU-449, SNU-475 and SNU-423, and 1,000 for H661 and H1299. After overnight incubation, 10 μL of drug (1% DMSO in RPMI) at designed concentrations were added to the cells. The cells were then incubated for 16, 24, 48, 72, or 96 h at 37° C. in a humidified atmosphere of 5% CO2 before CellTiter-Glo reagent (10 μL) was dispensed to the wells. The cells were incubated at room temperature for a minimum of 10 min. After that, luminescence readings were recorded by a Microplate Reader (PHERAstar or Tecan Infinite M200 Pro) according to the manufacturer's instruction for measuring the luminescence.

[2] = biological target: T1, SALL4B-Nluc in H1299 cells (Homo sapiens, UniProt Q96SW2+Q9UJQ4); assay: Dual-luciferase SALL4B reporter cellular assay (main screen), Nluc/Fluc ratio; format: cell-based; conditions: NCI-H1299, read-out: maximum degradation (Dmax) of SALL4B_Nluc
T1 construct: expressed in transfected cells
T1 sequence (Q9UJQ4 1-616 isoform Q9UJQ4-2): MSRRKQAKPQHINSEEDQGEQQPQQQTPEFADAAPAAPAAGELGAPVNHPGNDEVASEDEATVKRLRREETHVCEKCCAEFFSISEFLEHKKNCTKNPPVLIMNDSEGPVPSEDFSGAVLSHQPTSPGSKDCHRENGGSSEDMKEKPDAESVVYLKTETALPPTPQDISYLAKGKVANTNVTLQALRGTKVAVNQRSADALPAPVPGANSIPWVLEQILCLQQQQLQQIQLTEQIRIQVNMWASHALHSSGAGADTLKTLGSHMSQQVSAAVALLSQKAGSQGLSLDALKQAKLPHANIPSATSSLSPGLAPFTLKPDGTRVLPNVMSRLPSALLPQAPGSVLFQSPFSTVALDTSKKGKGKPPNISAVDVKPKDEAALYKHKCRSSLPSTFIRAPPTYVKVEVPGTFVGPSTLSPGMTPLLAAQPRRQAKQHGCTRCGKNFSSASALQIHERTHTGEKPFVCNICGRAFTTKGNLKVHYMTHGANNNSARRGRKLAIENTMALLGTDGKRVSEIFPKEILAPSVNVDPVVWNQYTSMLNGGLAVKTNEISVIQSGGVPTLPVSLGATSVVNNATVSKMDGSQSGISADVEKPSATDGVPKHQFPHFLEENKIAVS
T1 sequence (Q96SW2 whole entry): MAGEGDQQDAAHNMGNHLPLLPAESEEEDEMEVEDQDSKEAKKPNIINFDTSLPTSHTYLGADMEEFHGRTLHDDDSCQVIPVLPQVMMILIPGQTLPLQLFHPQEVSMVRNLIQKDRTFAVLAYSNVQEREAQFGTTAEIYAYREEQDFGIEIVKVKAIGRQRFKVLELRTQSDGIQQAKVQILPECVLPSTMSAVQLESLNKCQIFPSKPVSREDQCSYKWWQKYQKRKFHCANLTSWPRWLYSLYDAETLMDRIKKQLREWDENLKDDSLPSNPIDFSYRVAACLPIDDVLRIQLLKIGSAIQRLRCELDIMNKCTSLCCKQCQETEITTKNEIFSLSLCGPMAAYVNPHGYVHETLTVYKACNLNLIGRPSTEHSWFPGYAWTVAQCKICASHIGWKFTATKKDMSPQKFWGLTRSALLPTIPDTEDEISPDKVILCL
T1 sequence (Q16531 whole entry partner): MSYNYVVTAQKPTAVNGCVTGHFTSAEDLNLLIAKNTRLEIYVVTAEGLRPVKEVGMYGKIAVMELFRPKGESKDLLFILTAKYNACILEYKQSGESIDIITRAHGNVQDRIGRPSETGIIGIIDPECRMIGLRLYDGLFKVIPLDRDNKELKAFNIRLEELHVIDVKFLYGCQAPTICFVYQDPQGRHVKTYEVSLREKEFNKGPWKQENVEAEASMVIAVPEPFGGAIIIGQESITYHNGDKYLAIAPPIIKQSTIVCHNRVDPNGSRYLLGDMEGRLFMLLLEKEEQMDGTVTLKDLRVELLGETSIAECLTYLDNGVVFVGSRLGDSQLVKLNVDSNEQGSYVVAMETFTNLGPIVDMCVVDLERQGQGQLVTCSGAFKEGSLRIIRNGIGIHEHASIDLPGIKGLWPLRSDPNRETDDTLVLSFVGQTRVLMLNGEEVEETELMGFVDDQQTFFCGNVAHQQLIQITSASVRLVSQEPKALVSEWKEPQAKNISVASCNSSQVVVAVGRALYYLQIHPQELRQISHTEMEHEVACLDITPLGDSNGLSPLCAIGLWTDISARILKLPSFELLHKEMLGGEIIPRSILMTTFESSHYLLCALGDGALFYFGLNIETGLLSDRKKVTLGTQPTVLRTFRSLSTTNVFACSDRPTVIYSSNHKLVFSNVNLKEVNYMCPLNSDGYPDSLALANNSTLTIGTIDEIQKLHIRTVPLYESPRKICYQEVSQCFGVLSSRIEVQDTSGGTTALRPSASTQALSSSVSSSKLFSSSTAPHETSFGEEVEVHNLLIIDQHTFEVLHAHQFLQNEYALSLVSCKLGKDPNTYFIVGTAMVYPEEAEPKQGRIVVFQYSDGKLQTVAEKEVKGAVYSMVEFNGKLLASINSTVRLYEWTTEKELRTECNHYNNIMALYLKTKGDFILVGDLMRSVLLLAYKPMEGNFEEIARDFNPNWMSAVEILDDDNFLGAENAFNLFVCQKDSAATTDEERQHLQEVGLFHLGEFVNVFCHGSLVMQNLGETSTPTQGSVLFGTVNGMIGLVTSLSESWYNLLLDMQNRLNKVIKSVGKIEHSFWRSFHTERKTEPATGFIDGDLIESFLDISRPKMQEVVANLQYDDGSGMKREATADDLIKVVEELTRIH
Description: (§1) SALL4A or SALL4B was cloned into the dual-luciferase plasmid (pLL3.7-EF1a-IRES-Gateway-nluc-2xHA-IRES2-fluc-hCL1-P2A-Puro from Prof. William G. Kaelin group) to create a stable cell line (H1299, SALL4 negative) that ectopically express the SALL4A or B-NanoLuc fusion protein. SALL4A or B fused to nanoluciferase (Nluc) was expressed in a multicistronic mRNA with control firefly luciferase (Fluc). The measurement of Nluc/Fluc ratio enabled the determination of SALL4 fusion protein degradation relative to the internal Fluc control, independent of effects on transcription (FIG. 1A-B).
The assay was performed as described in Example 1 except in a 1,536-well plate which allows HTS of thermal shift hits from the primary screen, searching for SALL4 small molecule binders that can degrade the oncogenic SALL4B isoform. H1299 cells that stably express SALL4A/B_Nluc_Fluc were seeded in a 1,536-well clear bottom white plate (Corning) at 2,000 cells per well in RPMI medium (6 μL) and grown overnight (16 h) at 37° C., 5% CO2. Cells were treated with 8 μM of compounds for 6 h. Nano-Glo® Dual-Luciferase® Reporter Assay System and Pherastar plate reader were used for measuring the luciferase signal, following the manufacturer's instruction. For data analysis, the Nanoluc luminescence is normalized to firefly luciferase reading and then compared to the DMSO control. The screen was performed in triplicates.
The inventors treated H1299 cells overexpressing SALL4B_Nluc and the HCC (SNU-398, SNU-182) and NSCLC cells (H661) with increasing concentrations of QE-18-WG07 and IMiDs, and assayed the SALL4B_Nluc, as well as the endogenous SALL4A and B levels by immunoblots described in Example 4.

[3] = biological target: SALL4A-Nluc in H1299 cells (Homo sapiens, UniProt Q96SW2+Q9UJQ4); conditions: 10 μM, H1299 cells overexpressing SALL4A-nanoluc
Chain of SALL4A-Nluc in H1299 cells (Q96SW2 whole entry): as the sequence (Q96SW2 whole entry) above
Chain of SALL4A-Nluc in H1299 cells (Q16531 whole entry, further chain): as the sequence (Q16531 whole entry partner) above
Chain of SALL4A-Nluc in H1299 cells (Q9UJQ4 whole entry): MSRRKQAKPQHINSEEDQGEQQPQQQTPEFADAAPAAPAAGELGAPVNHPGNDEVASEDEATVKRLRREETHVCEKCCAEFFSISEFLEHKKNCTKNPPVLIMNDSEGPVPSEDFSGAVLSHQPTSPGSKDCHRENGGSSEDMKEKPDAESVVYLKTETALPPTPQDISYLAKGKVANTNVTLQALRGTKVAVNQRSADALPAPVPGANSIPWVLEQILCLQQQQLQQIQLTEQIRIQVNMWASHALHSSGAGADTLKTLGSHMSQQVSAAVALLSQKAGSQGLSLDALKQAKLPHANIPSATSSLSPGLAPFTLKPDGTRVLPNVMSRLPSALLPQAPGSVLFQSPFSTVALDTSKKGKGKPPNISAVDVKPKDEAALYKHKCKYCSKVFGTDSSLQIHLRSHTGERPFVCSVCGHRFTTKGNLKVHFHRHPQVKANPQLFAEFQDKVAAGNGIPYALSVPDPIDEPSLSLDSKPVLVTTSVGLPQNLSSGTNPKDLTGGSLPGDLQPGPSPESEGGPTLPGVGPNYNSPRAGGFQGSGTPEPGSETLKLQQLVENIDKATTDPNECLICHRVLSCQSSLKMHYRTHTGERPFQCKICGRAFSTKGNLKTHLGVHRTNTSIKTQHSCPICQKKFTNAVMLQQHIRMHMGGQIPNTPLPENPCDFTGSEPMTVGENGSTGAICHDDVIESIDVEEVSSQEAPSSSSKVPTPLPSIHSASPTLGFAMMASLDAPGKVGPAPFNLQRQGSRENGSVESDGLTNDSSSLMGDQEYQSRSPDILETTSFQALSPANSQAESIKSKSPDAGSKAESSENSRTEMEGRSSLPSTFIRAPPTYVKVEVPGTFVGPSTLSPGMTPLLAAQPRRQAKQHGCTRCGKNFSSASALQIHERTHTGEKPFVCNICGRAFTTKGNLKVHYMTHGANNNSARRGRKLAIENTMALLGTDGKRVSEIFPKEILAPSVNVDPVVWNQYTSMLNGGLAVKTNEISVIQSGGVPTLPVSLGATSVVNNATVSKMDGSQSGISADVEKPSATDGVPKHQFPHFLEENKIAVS
Description: as §1

[4] = biological target: T2, IKZF1 (Homo sapiens, UniProt Q13422); assay: Immunoblot of IKZF1 in SNU-398 HCC cells; format: cell-based; conditions: SNU-398 cells
T2 construct: with immunoblots in SNU-398 HCC cells; endogenous in cells; host or cells: SNU-398 HCC cells
T2 sequence (Q13422 whole entry): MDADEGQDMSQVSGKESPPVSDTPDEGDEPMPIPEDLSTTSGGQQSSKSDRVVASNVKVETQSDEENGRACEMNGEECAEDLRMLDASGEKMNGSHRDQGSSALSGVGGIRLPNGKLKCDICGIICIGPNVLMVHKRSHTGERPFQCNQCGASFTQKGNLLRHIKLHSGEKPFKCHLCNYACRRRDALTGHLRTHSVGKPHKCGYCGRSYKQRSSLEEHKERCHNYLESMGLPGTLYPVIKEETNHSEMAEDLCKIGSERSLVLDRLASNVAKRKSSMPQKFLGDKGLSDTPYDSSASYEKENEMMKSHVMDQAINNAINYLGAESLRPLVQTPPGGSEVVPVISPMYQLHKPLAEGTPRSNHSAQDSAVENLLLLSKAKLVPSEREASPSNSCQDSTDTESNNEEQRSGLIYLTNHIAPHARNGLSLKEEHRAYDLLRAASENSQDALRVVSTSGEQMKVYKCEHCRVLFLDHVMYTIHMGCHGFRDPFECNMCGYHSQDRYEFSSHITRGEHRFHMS
Procedure: (§2) RIPA buffer containing freshly added protease inhibitors (2 mM PMSF) and protease inhibitor cocktail was used for cell lysis. The lysed cells were incubated for 10 min on ice and subsequently centrifuged at 4° C. for 10 min at 14,000 rpm. The protein concentrations of cell lysates were assessed using Bradford Assay as per manufacturer's instructions. The samples were denatured using 4× Sample buffer at 95° C. for 5 min. The samples were size resolved using polyacrylamide gel (8%) and Mini-PROTEAN Tetra Cell module. The size-resolved proteins were transferred onto PVDF via electroblotting using Mini Trans-Blot® module. The membrane was blocked using 5% BSA in TBST. The membrane was incubated with appropriate primary antibody (overnight) and secondary antibody (1 h). Immobilon Crescendo Western HRP substrate was used for signal development and images were acquired using darkroom development techniques.

[5] = tested on: cleaved PARP; assay: Immunoblot of cleaved PARP (apoptotic marker) in SNU-398 cells; format: cell-based, human; conditions: SNU-398 HCC cells, 24 h
Procedure: as §2

[6] = biological target: T3, IKZF3 (Homo sapiens, UniProt Q9UKT9); assay: Immunoblot of IKZF3 in SNU-398 HCC cells; format: cell-based; conditions: SNU-398 cells
T3 construct: with immunoblots in SNU-398 HCC cells; endogenous in cells; host or cells: SNU-398 HCC cells
T3 sequence (Q9UKT9 whole entry): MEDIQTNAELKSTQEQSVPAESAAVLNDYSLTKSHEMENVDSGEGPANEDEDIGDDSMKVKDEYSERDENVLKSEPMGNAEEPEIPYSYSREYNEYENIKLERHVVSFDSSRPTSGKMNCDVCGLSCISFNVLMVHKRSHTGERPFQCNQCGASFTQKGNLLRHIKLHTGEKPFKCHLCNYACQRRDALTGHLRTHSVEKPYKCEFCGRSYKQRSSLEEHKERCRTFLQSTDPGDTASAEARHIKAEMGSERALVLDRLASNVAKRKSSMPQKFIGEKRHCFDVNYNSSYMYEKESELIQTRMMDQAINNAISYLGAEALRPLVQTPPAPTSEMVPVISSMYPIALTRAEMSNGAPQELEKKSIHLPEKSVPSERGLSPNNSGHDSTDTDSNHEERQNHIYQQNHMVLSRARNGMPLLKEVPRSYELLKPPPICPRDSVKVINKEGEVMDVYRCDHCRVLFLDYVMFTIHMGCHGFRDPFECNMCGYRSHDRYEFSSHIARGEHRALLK
Procedure: as §2

[7] = tested on: c-myc; assay: Immunoblot of c-myc (SALL4 downstream target) in SNU-398 cells; format: cell-based, human; conditions: SNU-398 HCC cells, 24 h
Procedure: as §2

| Compound | effect on SNU-398 cell growth [1] | Dmax [2] [%] | time at which inhibition of SALL4A-Nluc signal became saturated [3] [h] | Dmax [4] [%] | cleavage of PARP (apoptosis induction) [5] | Dmax [6] [%] | effect on the level of c-myc [7] |
| --- | --- | --- | --- | --- | --- | --- | --- |
| Nc1cccc2c1C(=O)N(C1CCC(=O)NC1=O)C2=O (stereo not drawn) [Pomalidomide, reference compound] | did not result in any antiproliferative consequences | 17 | 8 |  |  |  |  |
| O=C1CCC(N2C(=O)c3ccccc3C2=O)C(=O)N1 (stereo not drawn) [Thalidomide, reference compound] | did not result in any antiproliferative consequences | 17 |  | 64 | no cleavage of PARP observed | 39 | did not affect |
